Reference: US11084879B2, “Compositions and methods for treating pancreatitis and pain with death receptor agonists” (The Johns Hopkins University, priority 2016, dated 2021)
Where two headings read alike, the source gives them in different places.

Assays:
activated PSCs = assay: Apoptosis markers in activated PSCs, TRAILPEG versus conventional toxic agents; assay type: cell-based, human; conditions: 48 hr, DOX 100 nM, CIS 10 μM, H2O2 10 μM
EtOH-activated PSCs = assay: Caspase 3/7 assay in EtOH-activated PSCs; assay type: cell-based, human; conditions: alcohol-activated PSCs; different concentrations (0-10^3 ng/mL), alcohol still present in culture
Protocol: Caspase 3/7 activities were measured by caspase3/7 assay kit (Promega) according to the manufacturer's protocol. The luminescence of each sample was measured on a plate reader (Bio-Tek Instruments Inc) with parameters of 1 min lag time and 0.5 sec/well read time (n=4).
To investigate TRAIL-induced apoptosis in alcohol-activated PSCs, 2×10^4 cells were cultured for overnight in a 96-well plate and then activated with 50 mM EtOH for 48 h. […] Apoptosis was measured by MTT cell death assay and caspase 3/7 assay as described above.

[1] = rodents; cited from earlier work
[2] = humans; cited from earlier work

| Compound | killing of activated PSCs by conventional toxic agents (activated PSCs) | other results |
| --- | --- | --- |
| OO [hydrogen peroxide] | difficult to kill | – |
| conatumumab: human anti-DR5 agonistic antibody (Creative Biolabs) | – | apoptosis (caspase 3/7 activity, FIG. 9) (EtOH-activated PSCs): induced strong apoptosis dose-dependently |
| COc1cccc2c1C(=O)c1c(O)c3c(c(O)c1C2=O)C[C@@](O)(C(=O)CO)C[C@@H]3O[C@H]1C[C@H](N)[C@H](O)[C@H](C)O1 [doxorubicin] | difficult to kill | – |
| N.N.[Cl][Pt][Cl] [cisplatin] | difficult to kill | – |
| TRAIL: TNF (Tumor Necrosis Factor)-related apoptosis-inducing ligand, protein ligand that induces apoptosis | – | t1/2 [1]: less than 5 min; t1/2 [2]: < 30 min |
